In patent US6620828B2, “Thiazole compounds and pharmaceutical compositions for inhibiting protein kinases and methods for their use” (Agouron Pharmaceuticals, Inc., priority 1999, dated 2003):
Several values for one entry are separate records, joined by “and”; a condition that tells them apart may be missing. Identical values can stand only once.

What was measured:
[1] = target: T1, LCK tyrosine kinase (Homo sapiens, UniProt P06239, C224D/P223M); assay: LCK spectrophotometric assay; type: biochemical; conditions: for Ki: Table 3, first value of cells with two values
T1 construct: starting from amino acid residue 223 to the end of the protein at residue 509; made in house; host or cells: insect cells
T1 sequence (P06239 223-509 P223M/C224D): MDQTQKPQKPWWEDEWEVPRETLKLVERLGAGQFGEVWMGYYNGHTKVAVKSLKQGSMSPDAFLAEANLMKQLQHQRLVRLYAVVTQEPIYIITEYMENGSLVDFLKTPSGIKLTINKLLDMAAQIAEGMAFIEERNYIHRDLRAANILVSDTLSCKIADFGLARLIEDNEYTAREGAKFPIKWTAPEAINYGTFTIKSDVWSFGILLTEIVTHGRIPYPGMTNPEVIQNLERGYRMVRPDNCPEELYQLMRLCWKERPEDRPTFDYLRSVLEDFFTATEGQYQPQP
Description: LCK Construct for Assay: The LCK tyrosine kinase was expressed in insect cells as an N-terminal deletion starting from amino acid residue 223 to the end of the protein at residue 509, with the following two amino acid substitutions at the N-terminus: […] and C224D.
The spectrophotometric assay was carried out as described above for VEGF-R2, except for the following changes in concentration: LCK=60 nM, MgCl2=0 mM, poly(E4Y1)=20 mM.

[2] = target: T2, FGF-R1 (Homo sapiens, UniProt P11362, C488A/C584S/L457V); assay: FGF-R spectrophotometric assay; type: biochemical; conditions: for inhibition at 1 µM: Table 3, % inh @ 1 uM, read-out: FGF-P Ki (nM) (% inh @ 1 uM)
T2 construct: starting from the endogenous methionine residue 456 to glutamate 766; made in house; host or cells: baculovirus vector expression system
T2 sequence (P11362 456-766 L457V/C488A/C584S): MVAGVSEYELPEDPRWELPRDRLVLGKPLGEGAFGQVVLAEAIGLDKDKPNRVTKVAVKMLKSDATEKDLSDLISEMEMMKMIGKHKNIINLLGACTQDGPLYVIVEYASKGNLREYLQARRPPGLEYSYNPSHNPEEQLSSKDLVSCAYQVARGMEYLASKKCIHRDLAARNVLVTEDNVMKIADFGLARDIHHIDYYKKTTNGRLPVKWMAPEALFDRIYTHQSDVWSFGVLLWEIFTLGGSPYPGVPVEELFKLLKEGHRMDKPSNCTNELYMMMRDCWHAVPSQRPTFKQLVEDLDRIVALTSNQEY
Procedure, shortened: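 Kinase domain (Met456–Glu766, baculovirus-expressed) used at 50 nM in a spectrophotometric assay run as for VEGF-R2. Substrates were 2 mM ATP and 15 mM poly(E4Y1).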

[3] = target: T3, phosphorylated VEGF-R2Δ50 (FLVK-P) (Homo sapiens, UniProt P35968, DEL940-989/E990V); assay: VEGF-R2 coupled spectrophotometric (FLVK-P) assay; type: biochemical
T3 construct: VEGF-R2Δ50 contains residues 806-939 and 990-1171; made in house; host or cells: baculovirus/insect cells
T3 sequence (P35968 with tags, fused parts or gaps DEL940-989/E990V limits assumed): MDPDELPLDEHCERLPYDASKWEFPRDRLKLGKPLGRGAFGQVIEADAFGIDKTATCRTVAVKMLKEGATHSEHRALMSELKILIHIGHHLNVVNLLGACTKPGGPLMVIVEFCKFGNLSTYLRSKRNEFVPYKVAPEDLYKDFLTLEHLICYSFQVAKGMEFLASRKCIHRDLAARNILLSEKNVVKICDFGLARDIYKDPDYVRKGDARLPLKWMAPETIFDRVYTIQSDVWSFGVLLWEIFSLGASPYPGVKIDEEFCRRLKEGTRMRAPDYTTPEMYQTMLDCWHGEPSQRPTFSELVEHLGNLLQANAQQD
Procedure, shortened: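 Baculovirus-expressed human VEGF-R2Δ50 (residues 806-939/990-1171, E990V) was autophosphorylated with 3 mM ATP, 40 mM MgCl2 for 2 h at 4° C. ADP formation was coupled via PK/LDH to NADH oxidation, read at 340 nm, with 5.1 mM poly(E4Y1), 1 mM ATP, 25 mM MgCl2, Hepes pH 7.5. Ki came from activity across compound concentrations.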

[4] = target: T4, FAKcd409 (Homo sapiens, UniProt Q05397, P410T); assay: FAK HTS assay; type: biochemical; conditions: 10 uM compound, HTS Delphia assay; 10 µM
T4 construct: comprises residues methionine 409 to glutamate 689; made in house; host or cells: baculovirus vector expression system
T4 sequence (Q05397 409-689 P410T): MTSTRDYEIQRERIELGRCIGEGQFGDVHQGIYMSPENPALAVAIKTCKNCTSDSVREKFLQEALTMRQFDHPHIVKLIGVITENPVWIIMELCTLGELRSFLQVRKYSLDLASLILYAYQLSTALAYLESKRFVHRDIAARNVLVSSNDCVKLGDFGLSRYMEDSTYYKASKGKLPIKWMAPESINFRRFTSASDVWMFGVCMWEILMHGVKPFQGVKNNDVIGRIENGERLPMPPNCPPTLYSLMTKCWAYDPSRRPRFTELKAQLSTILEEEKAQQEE

[5] = tested on: VEGF; assay: In vivo assay of retinal vascular development in neonatal rats; parameters: species or system rat; conditions: development model; intravitreal, 2 μl of 5 mg/ml initial drug concentration
Description: In Vivo Assay of Retinal Vascular Development in Neonatal Rats
The development of the retinal vascular in rats occurs from postnatal day 1 to postnatal day 14 (P1-P14). This process is dependent on the activity of VEGF (J. Stone, et al, J. Neurosci., 15, 4738 (1995)). […] To assess the ability of specific compounds to inhibit the activity of VEGF in vivo, compounds were formulated in an appropriate vehicle, usually 50% polyethylene glycol, average molecular weight 400 daltons, and 50% solution of 300 mM sucrose in deionized water. Typically, two microliters (2 μl) of the drug solution was injected into the midvitreous of the eye of rat pups on postnatal day 8 or 9. Six days after the intravitreal injection, the animals were sacrificed and the retinas dissected free from the remaining ocular tissue. […] The individual retinas are then flat-mount onto glass slides and examined to determine the extent of vascularization. […] The amount of vessel regression was used to assess the relative potency of the compounds after in vivo administration. Vessel regression is graded on subjective scale of one to three pluses, with one plus being detectable regression judged to be approximately 25 percent or less, two pluses being judged to be approximately 25-75% regression and three pluses give to retinas with near total regression (approximately 75% or greater).

[6] = target: T5, unphosphorylated VEGF-R2Δ50 (FLVK) (Homo sapiens, UniProt P35968, DEL940-989/E990V); assay: VEGF-R2 coupled spectrophotometric assay, unphosphorylated enzyme (FLVK); type: biochemical; conditions: Table 3; some entries 'Slow binder'
T5 construct: VEGF-R2Δ50 contains residues 806-939 and 990-1171; made in house; host or cells: baculovirus/insect cells
T5 sequence (P35968 with tags, fused parts or gaps DEL940-989/E990V limits assumed): as the sequence (P35968 with tags, fused parts or gaps DEL940-989/E990V limits assumed) above
Procedure, shortened: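 Unphosphorylated VEGF-R2Δ50 (5 to 40 nM) with 20 mM poly(E4Y1), 3 mM ATP, 60 mM MgCl2, 2 mM MnCl2 in 200 mM Hepes pH 7.5. ADP production coupled via PK/LDH to NADH oxidation, read at 340 nm. Ki from activity at varying compound concentrations.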

[7] = tested on: lung cancer cells (line MV522); assay: Cancer cell proliferation (MV522) assay; type: cell-based; conditions: MV522, Table 3
[8] = tested on: human umbilical vein endothelial cells (HUVEC); assay: HUVEC proliferation assay; type: cell-based; conditions: Homo sapiens, HUVEC, Table 3
Procedure, shortened: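 Exponentially growing HUVEC were serum-starved 24 h (F12K + 1% FBS), pre-treated 1 h with compound (0.1% DMSO final), then stimulated with 6 ng/ml VEGF. Proliferation was read 72 h later by MTT reduction (A595). IC50 came from seven 0.5-log concentrations in triplicate; screens gave % inhibition relative to VEGF-only and starved wells.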

[9] = target: T1, LCK tyrosine kinase; assay: LCK spectrophotometric assay; type: biochemical; conditions: Table 3, read-out: LCK (% inh @ 1 uM)
[10] = tested on: VEGF dependent retinal neovascularization; assay: In vivo assay in neonatal rat model of retinopathy of prematurity; conditions: intravitreal injection
Description: In Vivo Assay of Retinal Vascular Development in Neonatal Rat Model of Retinopathy of Prematurity
A second model of VEGF dependent retinal neovascularization was employed to evaluate the activities of this series of compounds. In this model (Penn et. al, Invest. Ophthalmol. Vis. Sci., 36, 2063, (1995)), rats pups (n=16) with their mother are placed in a computer controlled chamber that regulates the concentration of oxygen. The animals are exposed for 24 hours to a concentration of 50% oxygen followed by 24 hours at a concentration of 10% oxygen. This alternating cycle of hyperoxia followed by hypoxia is repeated 7 times after which the animals are removed to room air (P14). Compounds are administered via intravitreal injection upon removal to room air and the animals are sacrificed 6 days later (P20). The isolated retinas are then isolated, stained mounted and analyzed as detail above in the development model. The effectiveness was also graded as is described for the development model.

In the case of `COc1cc(Nc2nc(N)c(-c3nc(-c4ccccc4O)cs3)s2)cc(OC)c1OC` [A(23), 2-[4′-Amino-2′-(3,4,5-trimethoxy-phenylamino)-[2,5′]bithiazolyl-4-yl]-phenol], the “LCK % inhibition @ 5” value ([1]; Table 2, at 5 (head μM)) is reported as 34% @, the “FGF-R % inhibition @ 5” value ([2]; Table 2, at 5 (head μM)) is reported as 47% @ and the Ki ([3]; Table 2, spectrophotometric assay) is reported as 39 nM. For the same compound, the “% inhibition of FAK” value [4] was −5% and −6% and 4% and the melting point was 186 to 190 °C (dec.).
For `CCn1nc(C)cc1C(=O)Nc1ccc(C)c(-c2noc(-c3sc(Nc4ccc(CO)cc4)nc3N)n2)c1` [B(30)], the Vessel regression grade [5] was “++ (two pluses being judged to be approximately 25-75% regression)” and the Ki [6] was 0.085 nM.
`COc1cc(Nc2nc(N)c(-c3nc(-c4cc(NC(=O)c5cccc(Cl)c5)ccc4Cl)no3)s2)cc(OC)c1OC` [D(64)] gave an IC50 [7] of 2000 nM, a Ki [1] of 3.2 nM and an inhibition at 1 µM [2] of 84%. It also gave a Ki [6] of 1.4 nM, an IC50 [8] of 10 to 100 nM and an inhibition at 1 µM [9] of 94%.
With `COc1cccc(C(=O)Nc2ccc(Cl)c(-c3noc(-c4sc(Nc5cc(OC)c(OC)c(OC)c5)nc4N)n3)c2)c1` [D(65), N-(3-{5-[4-Amino-2-(3,4,5-trimethoxy-phenylamino)-thiazol-5-yl]-[1,2,4]oxadiazyl}-4-chloro-phenyl)-3-methoxy-benzamide] the IC50 [7] was 2100 nM, the Ki [1] was 9.3 nM and the inhibition at 1 µM [2] was 37%. It also gave a Ki [6] of 1 nM, an IC50 [8] of 4.3 nM and an inhibition at 1 µM [9] of 91%.
In the case of `COc1cccc(C(=O)Nc2ccc(C)c(-c3noc(-c4sc(Nc5cc(OC)c(OC)c(OC)c5)nc4N)n3)c2)c1` [D(74), 3-[3-[(3-methoxybenzoyl)amino]-6-methyl-phenyl]-5-[2-[(3,4,5-trimethoxyphenyl)amino]-4-amino-5-thiazolyl]-1,2,4-oxadiazole], the inhibition at 1 µM [2] is reported as 61%, the inhibition at 0.05 µM ([3]; Table 3, at 50 nM) is reported as 91% and the Vessel regression grade [10] is reported as “++ (two pluses being judged to be approximately 25-75% regression)”. It also gave an IC50 [8] of 5.2 nM and an inhibition at 1 µM [9] of 92%.
